{"source": "patent US20230295234A1", "about": "“ANTIMICROBIAL PEPTIDOMIMETICS” (SPEXIS AG, priority 2020, published 2023)", "key": {"[1]": {"test_system": "Escherichia coli ATCC 25922", "settings": "ATCC 25922", "in_short": "(§1)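 Broth microdilution; cation-adjusted MHII; inoculum ~5×10^5 CFU/mL from 0.5 McFarland saline suspension; peptide two-fold serial dilutions; polysorbate 80 0.002% final; peptide stock 1 mg/mL in water.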"}, "[2]": {"test_system": "Escherichia coli MCR-1 Af 45", "settings": "MCR-1 Af 45", "in_short": "as §1"}, "[3]": {"test_system": "Klebsiella pneumoniae SSI3010", "settings": "SSI3010", "in_short": "as §1"}, "[4]": {"test_system": "human red blood cells (hRBC)", "assay": "Hemolysis of human red blood cells", "assay_type": "cell-based", "settings": "red cells of human, 1 h", "in_short": "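PBS-washed human red blood cells (20% v/v) were incubated with peptide at 200 μg/mL for 1 h at 37 °C with shaking. Supernatant OD was read at 540 nm after 8-fold dilution. Hemolysis is expressed as percent of the water control.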"}}, "note": "Peptide text beside a SMILES is read from it."}
{"compound": "CC[C@H](C)[C@H](NC(=O)[C@@H](NC(=O)[C@@H]1CCCN1C(=O)[C@@H](NC(=O)[C@@H]1CCCN1C(=O)[C@H](CCCCN)NC(=O)[C@@H](N)CCCCN)C(C)C)[C@@H](C)CC)C(=O)N[C@@H](Cc1ccc(O)cc1)C(=O)N[C@H]1CSSC[C@@H](C(=O)N[C@@H](CCN)C(=O)N[C@@H](CCCNC(=N)N)C(=O)N[C@@H](Cc2ccc(O)cc2)C(=O)O)NC(=O)[C@H](CCCCN)NC(=O)[C@@H](CCN)NC(=O)[C@H]([C@@H](C)O)NC(=O)CN(CCCCN)C(=O)[C@H](CCCNC(=N)N)NC(=O)[C@H](CC(N)=O)NC1=O", "note": "[Example 105] (HELM PEPTIDE1{K.K.P.V.P.I.I.Y.C.N.R.[NCCCCN(CC(=O)[*:2])[*:1]].T.[NCC[C@@H](N[*:1])C(=O)[*:2]].K.C.[Dab].R.Y}$PEPTIDE1,PEPTIDE1,9:R3-16:R3$$$V2.0)", "values": [{"measurement": "Escherichia coli ATCC 25922 MIC", "setting": "[1]", "value": 0.125, "unit": "µg/mL"}, {"measurement": "Escherichia coli MCR-1 Af 45 MIC", "setting": "[2]", "value": 0.0625, "unit": "µg/mL"}, {"measurement": "Klebsiella pneumoniae SSI3010 MIC", "setting": "[3]", "value": 0.125, "unit": "µg/mL"}, {"measurement": "Hemolysis at 0.2 g/L", "setting": "[4]", "value": 0, "unit": "%"}]}
{"compound": "CC[C@H](C)[C@H](NC(=O)[C@@H](NC(=O)[C@@H]1CCCN1C(=O)[C@@H](NC(=O)[C@@H]1CCCN1C(=O)[C@H](CCCCN)NC(=O)[C@@H](N)CCCCN)C(C)C)[C@@H](C)CC)C(=O)N[C@@H](Cc1ccc(O)cc1)C(=O)N[C@H]1CSSC[C@@H](C(=O)N[C@@H](CCN)C(=O)N[C@@H](CCCNC(=N)N)C(=O)N[C@@H](Cc2ccc(O)cc2)C(=O)O)NC(=O)[C@H](CCCCN)NC(=O)[C@@H](CCN)NC(=O)[C@H]([C@@H](C)O)NC(=O)CN(CCCN)C(=O)[C@H](CCCNC(=N)N)NC(=O)[C@H](CC(N)=O)NC1=O", "note": "[Example 106] (HELM PEPTIDE1{K.K.P.V.P.I.I.Y.C.N.R.[NCCCN(CC(=O)[*:2])[*:1]].T.[NCC[C@@H](N[*:1])C(=O)[*:2]].K.C.[Dab].R.Y}$PEPTIDE1,PEPTIDE1,9:R3-16:R3$$$V2.0; N-terminus assumed)", "values": [{"measurement": "Escherichia coli ATCC 25922 MIC", "setting": "[1]", "value": 0.25, "unit": "µg/mL"}, {"measurement": "Escherichia coli MCR-1 Af 45 MIC", "setting": "[2]", "value": 0.125, "unit": "µg/mL"}, {"measurement": "Klebsiella pneumoniae SSI3010 MIC", "setting": "[3]", "value": 0.125, "unit": "µg/mL"}, {"measurement": "Hemolysis at 0.2 g/L", "setting": "[4]", "value": 0, "unit": "%"}]}
{"compound": "CC[C@H](C)[C@H](NC(=O)[C@@H](NC(=O)[C@@H]1CCCN1C(=O)[C@@H](NC(=O)[C@@H]1CCCN1C(=O)[C@H](CCCCN)NC(=O)[C@@H](N)CCCCN)C(C)C)[C@@H](C)CC)C(=O)N[C@@H](Cc1ccc(O)cc1)C(=O)N[C@H]1CSSC[C@@H](C(=O)N[C@@H](CCN)C(=O)N[C@@H](CCCNC(=N)N)C(=O)N[C@@H](Cc2ccc(O)cc2)C(=O)O)NC(=O)[C@H](CCCCN)NC(=O)[C@@H](CCN)NC(=O)[C@H]([C@@H](C)O)NC(=O)CN(CCN)C(=O)[C@H](CCCNC(=N)N)NC(=O)[C@H](CC(N)=O)NC1=O", "note": "[Example 107] (HELM PEPTIDE1{K.K.P.V.P.I.I.Y.C.N.R.[NCCN(CC(=O)[*:2])[*:1]].T.[NCC[C@@H](N[*:1])C(=O)[*:2]].K.C.[Dab].R.Y}$PEPTIDE1,PEPTIDE1,9:R3-16:R3$$$V2.0; N-terminus assumed)", "values": [{"measurement": "Escherichia coli ATCC 25922 MIC", "setting": "[1]", "value": 0.25, "unit": "µg/mL"}, {"measurement": "Escherichia coli MCR-1 Af 45 MIC", "setting": "[2]", "value": 0.25, "unit": "µg/mL"}, {"measurement": "Klebsiella pneumoniae SSI3010 MIC", "setting": "[3]", "value": 0.25, "unit": "µg/mL"}, {"measurement": "Hemolysis at 0.2 g/L", "setting": "[4]", "value": 0, "unit": "%"}]}
{"compound": "CC[C@H](C)[C@H](NC(=O)[C@@H](NC(=O)[C@@H]1CCCN1C(=O)[C@@H](NC(=O)[C@@H]1CCCN1C(=O)[C@H](CCCCN)NC(=O)[C@@H](N)CCCCN)C(C)C)[C@@H](C)CC)C(=O)N[C@@H](Cc1ccc(O)cc1)C(=O)N[C@H]1CSSC[C@@H](C(=O)N[C@@H](CCN)C(=O)N(CCCN)CC(=O)N[C@@H](Cc2ccc(O)cc2)C(=O)O)NC(=O)[C@H](CCCCN)NC(=O)[C@@H](CCN)NC(=O)[C@H]([C@@H](C)O)NC(=O)[C@H](CCN)NC(=O)[C@H](CCCNC(=N)N)NC(=O)[C@H](CC(N)=O)NC1=O", "note": "[Example 108] (HELM PEPTIDE1{K.K.P.V.P.I.I.Y.C.N.R.[Dab].T.[NCC[C@@H](N[*:1])C(=O)[*:2]].K.C.[Dab].[NCCCN(CC(=O)[*:2])[*:1]].Y}$PEPTIDE1,PEPTIDE1,9:R3-16:R3$$$V2.0)", "values": [{"measurement": "Escherichia coli ATCC 25922 MIC", "setting": "[1]", "value": 0.125, "unit": "µg/mL"}, {"measurement": "Escherichia coli MCR-1 Af 45 MIC", "setting": "[2]", "value": "≤0.03125", "unit": "µg/mL"}, {"measurement": "Klebsiella pneumoniae SSI3010 MIC", "setting": "[3]", "value": 0.0625, "unit": "µg/mL"}, {"measurement": "Hemolysis at 0.2 g/L", "setting": "[4]", "value": 0, "unit": "%"}]}
{"compound": "CC[C@H](C)[C@H](NC(=O)[C@@H](NC(=O)[C@@H]1CCCN1C(=O)[C@@H](NC(=O)[C@@H]1CCCN1C(=O)[C@H](CCCCN)NC(=O)[C@@H](N)CCCCN)C(C)C)[C@@H](C)CC)C(=O)N[C@@H](Cc1ccc(O)cc1)C(=O)N[C@H]1CSSC[C@@H](C(=O)N[C@@H](CCN)C(=O)N(CCCCN)CC(=O)N[C@@H](Cc2ccc(O)cc2)C(=O)O)NC(=O)[C@H](CCCCN)NC(=O)[C@@H](CCN)NC(=O)[C@H]([C@@H](C)O)NC(=O)[C@H](CCN)NC(=O)[C@H](CCCNC(=N)N)NC(=O)[C@H](CC(N)=O)NC1=O", "note": "[Example 109] (HELM PEPTIDE1{K.K.P.V.P.I.I.Y.C.N.R.[Dab].T.[NCC[C@@H](N[*:1])C(=O)[*:2]].K.C.[Dab].[NCCCCN(CC(=O)[*:2])[*:1]].Y}$PEPTIDE1,PEPTIDE1,9:R3-16:R3$$$V2.0)", "values": [{"measurement": "Escherichia coli ATCC 25922 MIC", "setting": "[1]", "value": 0.0625, "unit": "µg/mL"}, {"measurement": "Escherichia coli MCR-1 Af 45 MIC", "setting": "[2]", "value": 0.0625, "unit": "µg/mL"}, {"measurement": "Klebsiella pneumoniae SSI3010 MIC", "setting": "[3]", "value": 0.125, "unit": "µg/mL"}, {"measurement": "Hemolysis at 0.2 g/L", "setting": "[4]", "value": 0, "unit": "%"}]}
{"compound": "CC[C@H](C)[C@H](NC(=O)[C@@H](NC(=O)[C@@H]1CCCN1C(=O)[C@@H](NC(=O)[C@@H]1CCCN1C(=O)[C@H](CCCCN)NC(=O)[C@@H](N)CCCCN)C(C)C)[C@@H](C)CC)C(=O)N[C@@H](Cc1ccc(O)cc1)C(=O)N[C@H]1CSSC[C@@H](C(=O)N[C@@H](CCN)C(=O)N(CCN)CC(=O)N[C@@H](Cc2ccc(O)cc2)C(=O)O)NC(=O)[C@H](CCCCN)NC(=O)[C@@H](CCN)NC(=O)[C@H]([C@@H](C)O)NC(=O)[C@H](CCN)NC(=O)[C@H](CCCNC(=N)N)NC(=O)[C@H](CC(N)=O)NC1=O", "note": "[Example 110] (HELM PEPTIDE1{K.K.P.V.P.I.I.Y.C.N.R.[Dab].T.[NCC[C@@H](N[*:1])C(=O)[*:2]].K.C.[Dab].[NCCN(CC(=O)[*:2])[*:1]].Y}$PEPTIDE1,PEPTIDE1,9:R3-16:R3$$$V2.0)", "values": [{"measurement": "Escherichia coli ATCC 25922 MIC", "setting": "[1]", "value": 0.125, "unit": "µg/mL"}, {"measurement": "Escherichia coli MCR-1 Af 45 MIC", "setting": "[2]", "value": 0.125, "unit": "µg/mL"}, {"measurement": "Klebsiella pneumoniae SSI3010 MIC", "setting": "[3]", "value": 0.125, "unit": "µg/mL"}, {"measurement": "Hemolysis at 0.2 g/L", "setting": "[4]", "value": 0, "unit": "%"}]}
{"compound": "CC[C@H](C)[C@H](NC(=O)[C@@H](NC(=O)[C@@H]1CCCN1C(=O)[C@@H](NC(=O)[C@@H]1CCCN1C(=O)[C@H](CCCCN)NC(=O)[C@@H](N)CCCCN)C(C)C)[C@@H](C)CC)C(=O)N[C@@H](Cc1ccc(O)cc1)C(=O)N[C@H]1CSSC[C@@H](C(=O)N[C@@H](CCN)C(=O)N(CCCNC(=N)N)CC(=O)N[C@@H](Cc2ccc(O)cc2)C(=O)O)NC(=O)[C@H](CCCCN)NC(=O)[C@@H](CCN)NC(=O)[C@H]([C@@H](C)O)NC(=O)[C@H](CCN)NC(=O)[C@H](CCCNC(=N)N)NC(=O)[C@H](CC(N)=O)NC1=O", "note": "[Example 111] (HELM PEPTIDE1{K.K.P.V.P.I.I.Y.C.N.R.[Dab].T.[NCC[C@@H](N[*:1])C(=O)[*:2]].K.C.[Dab].[N=C(N)NCCCN(CC(=O)[*:2])[*:1]].Y}$PEPTIDE1,PEPTIDE1,9:R3-16:R3$$$V2.0; N-terminus assumed)", "values": [{"measurement": "Escherichia coli ATCC 25922 MIC", "setting": "[1]", "value": 0.25, "unit": "µg/mL"}, {"measurement": "Escherichia coli MCR-1 Af 45 MIC", "setting": "[2]", "value": 0.125, "unit": "µg/mL"}, {"measurement": "Klebsiella pneumoniae SSI3010 MIC", "setting": "[3]", "value": 0.25, "unit": "µg/mL"}, {"measurement": "Hemolysis at 0.2 g/L", "setting": "[4]", "value": 0, "unit": "%"}]}
